From patent publication US20030096823A1, “Method for the treatment of cardiotoxicity induced by antitumor compounds” (priority 2001, published 2003)

Test system: heart (myocardial damage) of Crl:CD-1 (ICR) BR female mice
Test: cardiotoxicity in the Bertazzoli mouse model
Type: in vivo
Details: intravenous, expected
Description: Animals/group: 15 Crl:CD-1 (ICR) BR female mice, about 4 weeks old at the start of treatment, will be used.
Test and control articles and formulations: Epi and rmuAb will be dissolved in normal saline (saline) and distilled water for injection (water), respectively, at the requested concentrations; dex will be dissolved in M/6 sodium lactate at the requested concentration; control animals will receive the above vehicles alone.
Dose levels and justification: The doses of 5 mg/kg/day for epi and 50 mg/kg/day for dex (epi/dex ratio: 1:10) are selected on the basis of the results of previous cardiotoxicity studies in mice. […] The two doses of rmuAb will be decided on the basis of the results of two preliminary studies performed to assess its toxicity and cardiotoxic potential in the above strain of mice.
Administration route: intravenous, via a tail vein, for epi, dex and rmuAb.
Study duration and treatment schedule: Twice a week at weeks 1, 2, 5, 6, and 7 for epi and dex; twice a week for 7 weeks for rmuAb. Dex will be given 30 minutes before epi. […]
Clinical observations and post-mortem examinations: Mortality, clinical signs and general condition will be recorded daily and body weight weekly. […] Cardiomyopathy will be evaluated by scoring the severity and extent of the myocardial lesions according to a qualitative/quantitative score. […]

For `C[C@@H](CN1CC(=O)NC(=O)C1)N1CC(=O)NC(=O)C1` [dex, dexrazoxane], the “effect on myocardial damage produced by epi” value (50 mg/kg/day dex, 30 minutes before epi) was “significantly reduce the myocardial damage”.
In the case of `COc1cccc2c1C(=O)c1c(O)c3c(c(O)c1C2=O)C[C@@](O)(C(=O)CO)C[C@@H]3O[C@H]1C[C@H](N)[C@@H](O)[C@H](C)O1` [epi, epirubicin], the cardiotoxicity induced (5 mg/kg/day epi) is reported as “moderate/marked cardiotoxicity”.
